Where “and” joins values, the source holds several entries; their conditions need not be identical. Equal values may be shown once. Blank lines part the entries; values can stand above or below the substance they belong to. Numbered stars: 1 amine (or outer) side, 2 acyl side, 3 side chain; on linkers, the order of the positions; unused ones are H or OH. Square brackets hold non-standard residues; d marks the D form. * marks the point of attachment. Dab(5-FAM) = O=C(NCC[C@H](N[*:1])C(=O)[*:2])c1ccc2c(c1)C(=O)OC21c2ccc(O)cc2Oc2cc(O)ccc21; EDANS = O=S(=O)(O)c1cccc2c(NCCN*)cccc12; DABCYL = DABCYL quencher; GABA = NCCCC(=O)O
What was measured:
pronase = conditions: 23° C., 30 min, 100 tM substrate
Description: The biotinylated fluoreceinated peptide #15 was reconstituted to a concentration of 10 mM in DMSO to serve as a stock solution. […] The 10 mM stock was further diluted to a 1 mM working stock. The final in-reaction concentration of substrate was 100 tM, which was chosen based on visual/fluorescent appearance of the diluted sample.
Three reactions were run, a negative control which contained no protease, a tube which contained 10 tg/mL, and a tube that contained 100 tg/mL.
All three tubes were shaken at room temperature (23° C.) for 30 min, then 30 μL of 500 mM EDTA was added to quench the metalloproteases. Then the reactions were immediately added to 10 kDa cut-off centrifuge filters to physically remove all proteases. This step required two separate filters per sample as the protein content was high enough to “clog” the filter after about half of the volume as filtered. The unfiltered volume was removed from the “clogged” filter and placed into a fresh filter.
Six handee spin columns were prepared in advance by loading 200 tL of the streptavidin agarose suspension (approximately 1:1 bead:buffer) and then centrifuging to remove the buffer. Upon completion of the protease removal step, the filtered volume was placed in a handee spin column loaded with ˜100 tL of a high-capacity streptavidin agarose and the volumes were well mixed by pipetting action. […]

MMP-9 [1] = conditions: at 37° C., pH 7.64; cited from earlier work
Target sequence in this assay (P14780 94-707, species assumed): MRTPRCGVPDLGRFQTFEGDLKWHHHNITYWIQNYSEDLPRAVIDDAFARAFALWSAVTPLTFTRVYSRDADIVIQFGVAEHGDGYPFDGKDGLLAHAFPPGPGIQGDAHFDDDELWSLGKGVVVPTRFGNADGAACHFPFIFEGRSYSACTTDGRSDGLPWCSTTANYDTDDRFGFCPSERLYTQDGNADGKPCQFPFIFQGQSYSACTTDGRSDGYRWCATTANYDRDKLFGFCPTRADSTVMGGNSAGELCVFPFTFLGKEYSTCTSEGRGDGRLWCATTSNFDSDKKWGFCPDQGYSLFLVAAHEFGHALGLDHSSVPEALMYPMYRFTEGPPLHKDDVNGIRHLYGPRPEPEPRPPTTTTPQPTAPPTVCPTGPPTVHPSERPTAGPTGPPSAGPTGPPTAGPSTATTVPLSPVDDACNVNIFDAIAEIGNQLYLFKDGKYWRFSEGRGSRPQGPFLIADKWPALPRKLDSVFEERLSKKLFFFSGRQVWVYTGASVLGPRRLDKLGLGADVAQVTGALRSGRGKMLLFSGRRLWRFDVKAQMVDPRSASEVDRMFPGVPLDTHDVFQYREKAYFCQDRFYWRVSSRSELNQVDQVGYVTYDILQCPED

MMP-2 = target: T1, MMP-2 (Homo sapiens, UniProt P08253); conditions: at 37° C., pH 7.64; cited from earlier work
T1 sequence (P08253 110-660): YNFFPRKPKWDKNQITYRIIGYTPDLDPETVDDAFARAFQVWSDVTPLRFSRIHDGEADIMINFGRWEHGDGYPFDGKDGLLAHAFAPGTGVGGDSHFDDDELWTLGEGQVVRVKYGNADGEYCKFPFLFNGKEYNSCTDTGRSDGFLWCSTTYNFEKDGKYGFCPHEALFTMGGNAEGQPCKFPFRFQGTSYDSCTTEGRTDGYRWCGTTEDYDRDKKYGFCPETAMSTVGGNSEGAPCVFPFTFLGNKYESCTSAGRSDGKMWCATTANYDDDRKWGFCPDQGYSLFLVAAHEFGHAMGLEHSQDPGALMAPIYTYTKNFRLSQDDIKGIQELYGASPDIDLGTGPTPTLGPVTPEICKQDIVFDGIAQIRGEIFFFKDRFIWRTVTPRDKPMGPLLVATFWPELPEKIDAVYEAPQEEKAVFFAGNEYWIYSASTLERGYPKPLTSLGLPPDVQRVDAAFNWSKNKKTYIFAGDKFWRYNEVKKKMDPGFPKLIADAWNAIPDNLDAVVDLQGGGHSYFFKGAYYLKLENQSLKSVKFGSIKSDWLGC

MMP-3 = MMP-3 (Homo sapiens, UniProt P08254); conditions: at 37° C., pH 7.64; cited from earlier work
Chain of MMP-3 (P08254 100-477, species assumed): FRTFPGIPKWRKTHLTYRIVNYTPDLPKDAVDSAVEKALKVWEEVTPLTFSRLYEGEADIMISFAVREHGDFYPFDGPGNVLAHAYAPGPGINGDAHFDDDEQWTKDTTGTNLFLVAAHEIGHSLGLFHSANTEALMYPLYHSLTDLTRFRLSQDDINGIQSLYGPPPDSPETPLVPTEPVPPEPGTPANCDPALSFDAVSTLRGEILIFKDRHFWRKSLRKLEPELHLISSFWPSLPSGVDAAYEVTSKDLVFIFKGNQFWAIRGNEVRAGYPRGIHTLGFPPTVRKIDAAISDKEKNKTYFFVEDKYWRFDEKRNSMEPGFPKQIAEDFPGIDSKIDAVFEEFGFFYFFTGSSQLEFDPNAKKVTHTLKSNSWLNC

MMP-1 = target: T2, MMP-1 (Homo sapiens, UniProt P03956); conditions: at 37° C., pH 7.64; cited from earlier work
T2 sequence (P03956 100-469): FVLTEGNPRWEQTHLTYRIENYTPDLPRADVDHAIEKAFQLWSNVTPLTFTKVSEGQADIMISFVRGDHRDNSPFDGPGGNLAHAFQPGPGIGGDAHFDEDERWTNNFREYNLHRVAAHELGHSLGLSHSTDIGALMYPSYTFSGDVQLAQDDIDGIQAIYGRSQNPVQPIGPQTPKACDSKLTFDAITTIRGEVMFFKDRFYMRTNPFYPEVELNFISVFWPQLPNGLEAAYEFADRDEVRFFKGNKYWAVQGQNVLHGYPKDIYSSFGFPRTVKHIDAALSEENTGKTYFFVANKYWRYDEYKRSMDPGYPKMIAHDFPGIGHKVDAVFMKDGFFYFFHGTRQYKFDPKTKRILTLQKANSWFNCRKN

substrate TNO211 [2] = assay: Study #1: time-to-detection of protease activity, cleavage of substrate TNO211 by fluorescence; assay type: biochemical; conditions: protease concentrations ≦100 ng/ml
Description: 1. Prepare a suitable standard curve diluted in enzyme buffer. Typically, a maximum of 50 ng/ml final protease concentration in the assay is used. Keep on ice until use.
2. Prepare the substrate solution by diluting the Stock Reconstituted Substrate (in DMSO) to 5.56 uM in the desired Assay Buffer (EDTA-free or EDTA-containing) to produce 90 ul of total EDTA-free or EDTA-containing Assay Buffer per well.
3. Pipette 90 ul substrate solution into each well to be assayed.
4. Take an initial fluorescence reading. To minimize interference due to the fluorescence of endogenous proteins in the samples, we routinely use excitation/emission wavelengths of 355/535 nm, respectively.
5. Pipette 10 ul standards, samples, or Enzyme Buffer (BLANK) into each well of the 96-well fluorescence assay plate.
6. Measure the change in fluorescence continuously until the standard range of interest is sufficiently resolved. Protect from light at RT or 37° C. between measurements.
7. Determine the best-fit curve relating the Change in Fluorescence (AF) vs.
[Protease]. […]
One hundred, 10, 1, and 0.1 ng of pronase, MMP-2, MMP-9, and clostridial collagenase were assayed in a total reaction volume of 100 ul for cleavage of substrate TNO211 as detected by fluorescence. The reactions were monitored for approximately one hour after the addition of the proteases.

substrate TNO211 [3] = assay: Study #3: protease detection sensitivity, visual detection under UV; assay type: biochemical; conditions: within 10 minutes; from 17% and 28% of pronase activity
Description: To investigate the visual detection limits of pronase, standard curves (1000-0 ng) of the protease were reacted in 50, 100, and 200 uM substrate diluted in the assay buffer. Digital photographs were taken under white light and UV. These observations were compared to those obtained quantitatively using the fluorescence plate reader. The observed detection limits for pronase were used to calculate theoretical detection limits for MMP-2 and MMP-9 (17% and 28% as active as pronase, respectively).

MMP-9 [4] = assay: 5-FAM FRET peptide assay with pure recombinant MMP-9; assay type: biochemical; conditions: pure MMP-9 activity near the threshold of Ladwig et al.
Description: Peptide: Two vials of Anaspec, Inc.'s FRET peptide XV (1646.1 g/mol; 100 pg each; Sequence: QXL™520-y-Abu-Pro-Gln-Gly-Leu-Dab(5-FAM)-Ala-Lys-NH (SEQ ID NO:3)) were reconstituted with 60.7 pL of dimethyl sulfoxide (DMSO) to create a stock solution with a concentration of 1.0 mM. A 2× (50 pM) working solution was generated by diluting the 1.0 mM stock in MMP Assay Buffer 20-fold. Each reaction will be 20 pL at final volume requiring at least 0.5 pL of 1.0 mM stock, 9.5 pL of MMP assay buffer and 10 pL of sample per reaction.
Matrix Metalloprotease 9 (aka Gelatinase B): Recombinant active pure MMP-9 from Calbiochem (Cat# PF024; 83 kDa form) in a concentration of 100 ng/mL was used to create 40 pL working solutions at 2× concentration (4× reactions per concentration).
The protease was ˜30 pL of 10 pg/mL MMP-9 (86 kDa form). The substrate was ˜60 μL of 50 μCM 5-FAM/QXL520 FRET Peptide (Fluorescein based TNO211). So the final protease concentration is ˜3.33 μg/mL with ˜33.3 μM.
After the plate-based validation, the leftover substrate and protease were used to test the system in a microcentrifuge tube. A signal visible with a handheld cyan led flashlight was present within 10 minutes. The signal was visible under normal lighting conditions, but the signal is enhanced with the lights out or with the tube shielded.
Target sequence in this assay (P14780 107-707 limits assumed): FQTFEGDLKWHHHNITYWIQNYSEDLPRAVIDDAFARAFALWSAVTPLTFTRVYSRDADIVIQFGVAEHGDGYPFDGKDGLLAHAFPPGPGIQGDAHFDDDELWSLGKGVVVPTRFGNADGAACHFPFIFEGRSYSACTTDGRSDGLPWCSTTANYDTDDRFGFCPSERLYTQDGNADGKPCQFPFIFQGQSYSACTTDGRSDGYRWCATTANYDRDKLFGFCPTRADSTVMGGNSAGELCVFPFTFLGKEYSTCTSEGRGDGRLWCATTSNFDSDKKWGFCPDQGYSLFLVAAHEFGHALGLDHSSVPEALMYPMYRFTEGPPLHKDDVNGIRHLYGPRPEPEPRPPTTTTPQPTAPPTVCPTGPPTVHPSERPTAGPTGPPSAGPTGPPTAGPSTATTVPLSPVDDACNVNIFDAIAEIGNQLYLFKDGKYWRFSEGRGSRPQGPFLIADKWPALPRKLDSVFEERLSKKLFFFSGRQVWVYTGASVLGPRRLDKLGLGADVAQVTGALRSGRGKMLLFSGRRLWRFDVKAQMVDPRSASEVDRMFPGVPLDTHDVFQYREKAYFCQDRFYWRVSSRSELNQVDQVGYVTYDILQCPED

Substance: Biotin-aAbu-Pro-Gln-Gly-Leu-Lys(5FAM)-Ala-Lys-NH2 [Peptide #15]
cleavage kinetics (pronase): favorable kinetics

Substance: DABCYL-GABA-Pro-Gln-Gly-Leu-Glu(EDANS)-Ala-Lys-NH2 ({DABCYL-GABA}-PQGLE(EDANS)AK-NH2) [TNO211]
kcatKm (MMP-9 [1]): 206,000 M^−1s^−1
kcatKm (MMP-2): 619,000 M^−1s^−1
kcatKm (MMP-3): 40,000 M^−1s^−1
kcatKm (MMP-1): 21,000 M^−1s^−1

activity as % of pronase's observed activity (substrate TNO211 [2]): 28±3% and 28%
theoretical detection limit calculated from pronase limit (substrate TNO211 [3]): ~450 ng
Substance: MMP-9: Matrix Metalloprotease 9, protease assayed for cleavage of substrate TNO211

Substance: QXL™520-y-Abu-Pro-Gln-Gly-Leu-Dab(5-FAM)-Ala-Lys-NH ({QXL520-GABA}-PQGL[Dab(5-FAM)]AK-NH2) [Anaspec XV]
time to generate a signal (MMP-9 [4]): ≤ 10 min

Substance: collagenase
activity as % of pronase's observed activity (substrate TNO211 [2]): 2±1%

From patent US20080176263A1, “Materials and Methods for Efficient and Accurate Detection of Analytes” (University of Florida Research Foundation, Inc., priority 2006, published 2008)
